The source of these data is patent US20250019387A1 (Frontier Medicines Corporation, priority 0001, published 2025).

Some results are limits rather than exact numbers.

Sequence of KRAS G12C and cRAF (Ras-binding domain) interaction (P01116 other isoform, or with tags, fused parts or gaps G12C/C51S/C80L/C118S): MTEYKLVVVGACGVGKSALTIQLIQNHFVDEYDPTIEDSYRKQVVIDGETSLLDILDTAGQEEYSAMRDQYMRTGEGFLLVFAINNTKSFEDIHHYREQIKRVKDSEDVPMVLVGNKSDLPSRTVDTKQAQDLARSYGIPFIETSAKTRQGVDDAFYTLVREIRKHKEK

The target in this assay is KRAS G12C and cRAF (Ras-binding domain) interaction (Homo sapiens (Human), UniProt P01116, C118S/C51S/C80L/G12C). As to the kind of experiment: Inhibition of KRAS G12C and cRAF binding (AlphaScreen). To be noted: GMPPNP-loaded KRAS G12C, 19-20 hours incubation with compound; read-out: IC50 (Inhibition of KRAS G12C and cRAF Binding). The method, boiled down:
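IC50 values come from 4-parameter nonlinear regression of AlphaScreen signal (680 nm excitation, 570 nm emission). Compound plates sat 19-20 h at room temperature before RBD and donor/acceptor beads were added in Hepes pH 7.4 buffer with 150 mM NaCl, 5 mM MgCl2, 2% DMSO for 60-90 min; biotin-AviTag-GST replaced RBD to flag assay-technology interferers.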
Background: Alpha assays give light when donor and acceptor beads are brought close together.
In general, IC50 refers to the concentration at which inhibition is half-maximal. Regarding `CC(C)c1noc(/C=C/C(=O)N2CC[C@@H](N(C)c3nc(OC[C@@]45CCCN4C[C@H](F)C5)nc4c3CCN(c3cccc5ccc(F)c(Cl)c35)C4)C2)n1` [Example 99, (E)-1-((R)-3-((7-(8-chloro-7-fluoronaphthalen-1-yl)-2-(((2R,7aS)-2-fluorohexahydro-1H-pyrrolizin-7a-yl)methoxy)-5,6,7,8-tetrahydropyrido[3,4-d]pyrimidin-4-yl)(methyl)amino)pyrrolidin-1-yl)-3-(3-isopropyl-1,2,4-oxadiazol-5-yl)prop-2-en-1-one], the IC50 was in the range of 10 to 100 nM.
The figure for `CN(c1nc(OCC23CCCN2CCC3)nc2c(F)c(-c3cccc4cccc(Cl)c34)ncc12)[C@@H]1CCN(C(=O)/C=C/c2nc(C(F)(F)F)no2)C1` [Example 100, (R,E)-1-(3-((7-(8-chloronaphthalen-1-yl)-8-fluoro-2-((tetrahydro-1H-pyrrolizin-7a(5H)-yl)methoxy)pyrido[4,3-d]pyrimidin-4-yl)(methyl)amino)pyrrolidin-1-yl)-3-(3-(trifluoromethyl)-1,2,4-oxadiazol-5-yl)prop-2-en-1-one] is less than 10 nM; for `CN(c1nc(OCC23CCCN2CCC3)nc2c(F)c(-c3cccc4cccc(Cl)c34)ncc12)[C@@H]1CCN(C(=O)/C=C/c2nc(C3(C)CC3)no2)C1` [Example 101, (R,E)-1-(3-((7-(8-chloronaphthalen-1-yl)-8-fluoro-2-((hexahydro-1H-pyrrolizin-7a-yl)methoxy)pyrido[4,3-d]pyrimidin-4-yl)(methyl)amino)pyrrolidin-1-yl)-3-(3-(1-methylcyclopropyl)-1,2,4-oxadiazol-5-yl)prop-2-en-1-one] it is less than 10 nM.
Turning to `CN(c1nc(OC[C@@]23CCCN2C[C@H](F)C3)nc2c(F)c(-c3cccc4ccc(F)c(Cl)c34)ncc12)[C@@H]1CCN(C(=O)/C=C/C2CCCN2)C1` (stereo partly drawn) [Example 102, (E)-1-((R)-3-((7-(8-chloro-7-fluoronaphthalen-1-yl)-8-fluoro-2-(((2R,7aS)-2-fluorotetrahydro-1H-pyrrolizin-7a(5H)-yl)methoxy)pyrido[4,3-d]pyrimidin-4-yl)(methyl)amino)pyrrolidin-1-yl)-3-(pyrrolidin-2-yl)prop-2-en-1-one], the 50% inhibitory concentration (IC50) was in the range of 10 to 100 nM.
Under `CN(c1nc(OC[C@@]23CCCN2C[C@H](F)C3)nc2c(F)c(-c3cccc4ccc(F)c(Cl)c34)ncc12)[C@@H]1CCN(C(=O)/C=C/C2CCN2)C1` (stereo partly drawn) [Example 103, (E)-3-(azetidin-2-yl)-1-((R)-3-((7-(8-chloro-7-fluoronaphthalen-1-yl)-8-fluoro-2-(((2R,7aS)-2-fluorotetrahydro-1H-pyrrolizin-7a(5H)-yl)methoxy)pyrido[4,3-d]pyrimidin-4-yl)(methyl)amino)pyrrolidin-1-yl)prop-2-en-1-one] stands 10 to 100 nM; under `CN(CC1CN(C(=O)/C=C/c2nc(C3CC3)no2)C1)c1nc(OC[C@@]23CCCN2C[C@H](F)C3)nc2c(F)c(-c3cccc4cccc(Cl)c34)ncc12` [Example 104, (E)-1-(3-(((7-(8-chloronaphthalen-1-yl)-8-fluoro-2-(((2R,7aS)-2-fluorotetrahydro-1H-pyrrolizin-7a(5H)-yl)methoxy)pyrido[4,3-d]pyrimidin-4-yl)(methyl)amino)methyl)azetidin-1-yl)-3-(3-cyclopropyl-1,2,4-oxadiazol-5-yl)prop-2-en-1-one], 100 to 500 nM; under `CN(CC1CN(C(=O)/C=C/c2nc(C(C)(C)O)no2)C1)c1nc(OC[C@@]23CCCN2C[C@H](F)C3)nc2c(F)c(-c3cccc4cccc(Cl)c34)ncc12` [Example 105, (E)-1-(3-(((7-(8-chloronaphthalen-1-yl)-8-fluoro-2-(((2R,7aS)-2-fluorotetrahydro-1H-pyrrolizin-7a(5H)-yl)methoxy)pyrido[4,3-d]pyrimidin-4-yl)(methyl)amino)methyl)azetidin-1-yl)-3-(3-(2-hydroxypropan-2-yl)-1,2,4-oxadiazol-5-yl)prop-2-en-1-one], less than 10 nM.
Under `CC(C)c1noc(/C=C/C(=O)N2CC(CN(C)c3nc(OC[C@@]45CCCN4C[C@H](F)C5)nc4c(F)c(-c5cccc6cccc(Cl)c56)ncc34)C2)n1` [Example 106, (E)-1-(3-(((7-(8-chloronaphthalen-1-yl)-8-fluoro-2-(((2R,7aS)-2-fluorotetrahydro-1H-pyrrolizin-7a(5H)-yl)methoxy)pyrido[4,3-d]pyrimidin-4-yl)(methyl)amino)methyl)azetidin-1-yl)-3-(3-isopropyl-1,2,4-oxadiazol-5-yl)prop-2-en-1-one] stands 10 to 100 nM; under `CN(c1nc(OC[C@@]23CCCN2C[C@H](F)C3)nc2c(F)c(-c3cccc4cccc(Cl)c34)ncc12)[C@@H]1CCN(C(=O)/C=C/c2nc(C(C)(C)O)no2)C1` [Example 107, (E)-1-((R)-3-((7-(8-chloronaphthalen-1-yl)-8-fluoro-2-(((2R,7aS)-2-fluorotetrahydro-1H-pyrrolizin-7a(5H)-yl)methoxy)pyrido[4,3-d]pyrimidin-4-yl)(methyl)amino)pyrrolidin-1-yl)-3-(3-(2-hydroxypropan-2-yl)-1,2,4-oxadiazol-5-yl)prop-2-en-1-one], less than 10 nM; under `CN(c1nc(OC[C@@]23CCCN2C[C@H](F)C3)nc2c1CCN(c1cccc3cccc(Cl)c13)C2)[C@@H]1CCN(C(=O)/C=C/c2cn(C)cn2)C1` [Example 110, (E)-1-((R)-3-((7-(8-chloronaphthalen-1-yl)-2-(((2R,7aS)-2-fluorohexahydro-1H-pyrrolizin-7a-yl)methoxy)-5,6,7,8-tetrahydropyrido[3,4-d]pyrimidin-4-yl)(methyl)amino)pyrrolidin-1-yl)-3-(1-methyl-1H-imidazol-4-yl)prop-2-en-1-one], more than 500 nM.
Under `CN(c1nc(OC[C@@]23CCCN2C[C@H](F)C3)nc2c(F)c(-c3cccc4cccc(Cl)c34)ncc12)[C@@H]1CCN(C(=O)/C=C/c2nc(C3CCC3)no2)C1` [Example 111, (E)-1-((R)-3-((7-(8-chloronaphthalen-1-yl)-8-fluoro-2-(((2R,7aS)-2-fluorohexahydro-1H-pyrrolizin-7a-yl)methoxy)pyrido[4,3-d]pyrimidin-4-yl)(methyl)amino)pyrrolidin-1-yl)-3-(3-cyclobutyl-1,2,4-oxadiazol-5-yl)prop-2-en-1-one] stands 10 to 100 nM.
On to `CN(c1nc(OC[C@@]23CCCN2C[C@H](F)C3)nc2c1CCN(c1cccc3cccc(Cl)c13)C2)[C@@H]1CCN(C(=O)/C=C/c2nc(C3(C)CC3)no2)C1` [Example 114, (E)-1-((R)-3-((7-(8-chloronaphthalen-1-yl)-2-(((2R,7aS)-2-fluorohexahydro-1H-pyrrolizin-7a-yl)methoxy)-5,6,7,8-tetrahydropyrido[3,4-d]pyrimidin-4-yl)(methyl)amino)pyrrolidin-1-yl)-3-(3-(1-methylcyclopropyl)-1,2,4-oxadiazol-5-yl)prop-2-en-1-one], for which the IC50 lay within 10 to 100 nM.
As to `CN(c1nc(OCC23CCCN2CCC3)nc2c(F)c(-c3cccc4cccc(Cl)c34)ncc12)[C@@H]1CCN(C(=O)/C=C/c2cn(C)cn2)C1` [Example 115, (R,E)-1-(3-((7-(8-chloronaphthalen-1-yl)-8-fluoro-2-((hexahydro-1H-pyrrolizin-7a-yl)methoxy)pyrido[4,3-d]pyrimidin-4-yl)(methyl)amino)pyrrolidin-1-yl)-3-(1-methyl-1H-imidazol-4-yl)prop-2-en-1-one], the IC50 is more than 500 nM.
The figure for `C=CC(=O)N1C[C@H](N(C)c2nc(OCC34CCCN3CCC4)nc3c(F)c(-c4cccc5cccc(Cl)c45)ncc23)CC1C#N` (stereo partly drawn) [Example 118, (4R)-1-acryloyl-4-((7-(8-chloronaphthalen-1-yl)-8-fluoro-2-((hexahydro-1H-pyrrolizin-7a-yl)methoxy)pyrido[4,3-d]pyrimidin-4-yl)(methyl)amino)pyrrolidine-2-carbonitrile] is 10 to 100 nM.
Under `C=CC(=O)N1C[C@H](N(C)c2nc(OCC34CCCN3CCC4)nc3c(F)c(-c4cccc5cccc(Cl)c45)ncc23)C[C@H]1CC#N` [Example 119, 2-((2S,4R)-1-acryloyl-4-((7-(8-chloronaphthalen-1-yl)-8-fluoro-2-((tetrahydro-1H-pyrrolizin-7a(5H)-yl)methoxy)pyrido[4,3-d]pyrimidin-4-yl)(methyl)amino)pyrrolidin-2-yl)acetonitrile] stands 100 to 500 nM; under `CN(c1nc(OC[C@@]23CCCN2C[C@H](F)C3)nc2c1CCN(c1cccc3cccc(Cl)c13)C2)[C@@H]1CCN(C(=O)/C=C/c2nc(C3CC3)no2)C1` [Example 120, (E)-1-((R)-3-((7-(8-chloronaphthalen-1-yl)-2-(((2R,7aS)-2-fluorohexahydro-1H-pyrrolizin-7a-yl)methoxy)-5,6,7,8-tetrahydropyrido[3,4-d]pyrimidin-4-yl)(methyl)amino)pyrrolidin-1-yl)-3-(3-cyclopropyl-1,2,4-oxadiazol-5-yl)prop-2-en-1-one], 10 to 100 nM.
Regarding `CN(c1nc(OC[C@@]23CCCN2C[C@H](F)C3)nc2c(F)c(-c3cccc4ccc(F)c(Cl)c34)ncc12)[C@@H]1CCN(C(=O)/C=C/C2CNCCO2)C1` (stereo partly drawn) [Example 122], the IC50 was 100 to 500 nM.
Under `CN(c1nc(OC[C@@]23CCCN2C[C@H](F)C3)nc2c(F)c(-c3cccc4ccc(F)c(Cl)c34)ncc12)[C@@H]1CCN(C(=O)/C=C/C2COCCN2)C1` (stereo partly drawn) [Example 123, (E)-1-((R)-3-((7-(8-chloro-7-fluoronaphthalen-1-yl)-8-fluoro-2-(((2R,7aS)-2-fluorotetrahydro-1H-pyrrolizin-7a(5H)-yl)methoxy)pyrido[4,3-d]pyrimidin-4-yl)(methyl)amino)pyrrolidin-1-yl)-3-(morpholin-3-yl)prop-2-en-1-one] stands 100 to 500 nM.
